Source: ChEMBL document CHEMBL1201862, “PubChem BioAssay data set” (2004)
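Cells were grown in 96-well plates and exposed to each compound for 48 hours at five concentrations; endpoints were interpolated linearly between bracketing concentrations, or set to the highest concentration if not reached. Abbreviation: GI50, concentration required for 50% inhibition of growth.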 Calls of active or inactive are those of the source. Rule as the data show it: active = GI50 up to about 1.1 µM and inactive = higher.

Tests used:
Assay in all cases: NCI tumour cell line growth inhibition, 48 h
[1] = tested on: SNB-78
[2] = tested on: DMS-114
[3] = tested on: XF498
[4] = tested on: DMS-273
[5] = tested on: HOP-18
[6] = tested on: DLD-1
[7] = tested on: RXF 631
[8] = tested on: KM-20L2

Measured: GI50

Cn1c2c(c3ccccc31)C1CCCCC1C1C(=O)NC(=O)C21 (configuration not stated)
inactive: [1] > 100 µM | [2] 50.4 µM | [3] 44.7 µM | [4] > 10 µM | [5] 33.4 µM | [6] 51.3 µM | [7] 41.4 µM

Clc1ccc(CCN2CCOCC2)c(Cl)c1
inactive: [1] > 100 µM | [8] > 100 µM | [2] > 100 µM | [3] > 100 µM | [5] > 100 µM | [6] > 100 µM | [7] > 100 µM

CC1C(O)=C(O)c2ccccc2N1O (configuration not stated)
inactive: [1] > 100 µM | [8] > 100 µM | [3] > 100 µM | [4] > 100 µM | [5] 93.8 µM | [6] > 100 µM | [7] > 100 µM

CC1=C(C(=O)CC(=O)C(=O)Nc2ccccc2)Sc2ccccc2N1
inactive: [1] > 100 µM | [8] > 100 µM | [2] > 100 µM | [3] > 100 µM | [5] 78.3 µM | [6] > 100 µM | [7] > 100 µM

CCOC(=O)COS(=O)(=O)C(F)(F)F
inactive: [1] > 100 µM | [8] > 100 µM | [2] 17.1 µM | [3] > 100 µM | [4] 18.4 µM | [5] > 100 µM | [6] 41.2 µM | [7] 45.1 µM

CN(C)CCCNC(=O)c1cccc2nc3ccccc3nc12
inactive: [1] 14.3 µM | [8] 25.1 µM | [2] 12.3 µM | [3] 1.14 µM | [4] 9.91 µM | [5] > 42.5 µM | [6] > 41.6 µM | [7] 32.6 µM

CCOP(=O)(OCC)C1CCCCOC1=O (configuration not stated)
inactive: [1] > 100 µM | [8] > 100 µM | [2] > 100 µM | [3] > 100 µM | [4] > 100 µM | [5] 44.2 µM | [6] > 100 µM | [7] > 100 µM

O=C1C2C3C=CC(C2C(=O)N1CN1CCSCC1)C1C2C(=O)N(CN4CCSCC4)C(=O)C2C31 (configuration not stated)
inactive: [1] > 100 µM | [8] > 76.2 µM | [2] 38.8 µM | [3] > 100 µM | [4] > 43.5 µM | [5] 41.2 µM | [6] > 51.4 µM | [7] > 100 µM
